Test results as given in PMC6263544, “Second-generation pterocarpanquinones: synthesis and antileishmanial activity” (The Journal of Venomous Animals and Toxins Including …, 2018).

tested on: not listed separately; assay: Macrophage toxicity test (resazurin); assay type: cell-based, Swiss mice; details: mouse; peritoneal macrophages of Swiss mice, 72 h, resazurin, Mean ± SEM; read-out: Murine Macrophage CC50
Procedure: To evaluate the toxicity of pterocarpanquinones 2a-f, peritoneal macrophages of Swiss mice (2 × 10^6/mL) were incubated with pterocarpanquinones (1.25–100 μM) for 72 h at 37 °C/5% CO2. Viability was evaluated with resazurin assay as described for the antipromastigote test. The 50% cytotoxicity concentration (CC50) was determined by nonlinear regression analysis in the software GraphPad Prism 5.

| Structure (SMILES) | CC50 at 72 h [µM] |
| --- | --- |
| O=C1C2=C(C(=O)c3ccccc31)[C@H]1CCc3ccccc3[C@H]1O2 (relative stereo) [LQB 187 (2a)] | 49.3 ± 1.1 |
| COc1ccc2c(c1)CC[C@@H]1C3=C(O[C@H]21)C(=O)c1ccccc1C3=O (relative stereo) [LQB 474 (2e)] | 14.9 ± 1.43 |

tested on: L. amazonensis promastigotes; assay: Antipromastigote test, L. amazonensis; assay type: cell-based, Leishmania amazonensis; details: Leishmania amazonensis; 72 h, resazurin, Mean ± SEM; read-out: L. amazonensis Promastigote IC50
Procedure: New cultures of promastigotes were obtained from infected Balb/C mice. […] A stock solution of the compounds was prepared at 50 mM in dimethylsulfoxide (Sigma Aldrich). The maximum solvent concentration used in the assays was 0.4% in a final volume per well of 200 μL. The cultures were initiated with 1.0 × 10^6 cells/ml and maintained at 26 °C for 72 h. Inhibition of parasitic growth was determined by cell viability indicator, resazurin [23], with excitation λ = 560 nm and emission λ = 590 nm or the number of parasites was then counted in a Neubauer chamber (experiments with L. braziliensis).

| Structure (SMILES) | IC50 [µM] |
| --- | --- |
| O=C1C2=C(C(=O)c3ccccc31)[C@H]1CCc3ccccc3[C@H]1O2 (relative stereo) [LQB 187 (2a)] | 1.05 ± 0.21 |
| COc1ccc2c(c1)CC[C@@H]1C3=C(O[C@H]21)C(=O)c1ccccc1C3=O (relative stereo) [LQB 474 (2e)] | 0.5 ± 0.07 |

tested on: L. braziliensis promastigotes; assay: Antipromastigote test, L. braziliensis; assay type: cell-based; details: Leishmania braziliensis; 72 h, parasites counted in Neubauer chamber, Mean ± SEM; read-out: L. braziliensis Promastigote IC50
Procedure: L. braziliensis (MCAN/BR/98/R619) was routinely isolated from hamster lesions and maintained as promastigotes in Schneider’s insect medium containing 20% HIFCS and 100 μg/ml gentamicin (Schering-Plough). New cultures of promastigotes were obtained from an infected hamster.
(§1) Leishmania promastigotes of three species were incubated in 96-well plates (Nunc, Roskilde, Denmark) under the conditions described above in either the absence or presence of different concentrations of pterocarpanquinones 2a-f (0-100 μM). A stock solution of the compounds was prepared at 50 mM in dimethylsulfoxide (Sigma Aldrich). The maximum solvent concentration used in the assays was 0.4% in a final volume per well of 200 μL. The cultures were initiated with 1.0 × 10^6 cells/ml and maintained at 26 °C for 72 h. Inhibition of parasitic growth was determined by cell viability indicator, resazurin [23], with excitation λ = 560 nm and emission λ = 590 nm or the number of parasites was then counted in a Neubauer chamber (experiments with L. braziliensis). The 50% inhibitory concentration (IC50) was determined by nonlinear regression analysis in the software GraphPad Prism 5.

| Structure (SMILES) | IC50 [µM] |
| --- | --- |
| O=C1C2=C(C(=O)c3ccccc31)[C@H]1CCc3ccccc3[C@H]1O2 (relative stereo) [LQB 187 (2a)] | 23.1 ± 1.63 |
| COc1ccc2c(c1)CC[C@@H]1C3=C(O[C@H]21)C(=O)c1ccccc1C3=O (relative stereo) [LQB 474 (2e)] | 12.3 ± 0.45 |

tested on: L. infantum promastigotes; assay: Antipromastigote test, L. infantum; assay type: cell-based, Leishmania infantum; details: Leishmania infantum; 72 h, resazurin, Mean ± SEM; read-out: L. infantum Promastigote IC50
Procedure: Leishmania infantum (MHOM/MA67ITMAP263) parasites were isolated from female BALB/c mice infected and cultured at 26 °C in Schneider’s insect medium supplemented with 20% HIFCS, streptomycin at 100 μg/ml and penicillin at 100 U/ml. New cultures of promastigotes were obtained from infected Balb/C mice.
as §1

| Structure (SMILES) | IC50 [µM] |
| --- | --- |
| O=C1C2=C(C(=O)c3ccccc31)[C@H]1CCc3ccccc3[C@H]1O2 (relative stereo) [LQB 187 (2a)] | 1.2 ± 0.2 |
| COc1ccc2c(c1)CC[C@@H]1C3=C(O[C@H]21)C(=O)c1ccccc1C3=O (relative stereo) [LQB 474 (2e)] | 2.2 ± 0.3 |

tested on: intracellular amastigotes of L. amazonensis; assay: Antiamastigote test, L. amazonensis in mouse peritoneal macrophages; assay type: cell-based, Leishmania amazonensis; details: CC50 in Macrophages/IC50 in intracellular amastigotes
Procedure: (§2) For the test against intracellular amastigotes of L. amazonensis and L. infantum, resident peritoneal macrophages (swiss mouse) were plated in RPMI (Sigma-Aldrich) at 2 × 10^6/mL (0.4 mL/well) in Lab-Tek eight-chamber slides (Nunc, Roskilde, Denmark) and incubated at 37 °C in 5% CO2 for 1 h. Stationary-phase L. amazonensis and L. infantum promastigotes were added at respective parasite/macrophage ratios of 3:1 and 5:1 for 4 h. After washing three times, pterocarpanquinones 2a-f at various concentrations were added for 72 h. Next, the slides were stained using an Instant Prov hematological dye system (Newprov, Curitiba, Brazil). The number of amastigotes was determined by counting at least 100 macrophages per sample.
(§3) The results were expressed as an infection index (% infected cells×number of amastigotes/total number of macrophages). The 50% inhibitory concentration (IC50) was determined by nonlinear regression analysis in the software GraphPad Prism 5.

| Structure (SMILES) | L. amazonensis SI (Selective Index) |
| --- | --- |
| O=C1C2=C(C(=O)c3ccccc31)[C@H]1CCc3ccccc3[C@H]1O2 (relative stereo) [LQB 187 (2a)] | 54.7 |
| COc1ccc2c(c1)CC[C@@H]1C3=C(O[C@H]21)C(=O)c1ccccc1C3=O (relative stereo) [LQB 474 (2e)] | 5.74 |

same assay, conditions: Leishmania amazonensis, Peritoneal macrophage; intracellular amastigotes in mouse peritoneal macrophages, 72 h, infection index, Mean ± SEM; read-out: L. amazonensis Amastigote IC50

| Structure (SMILES) | IC50 [µM] |
| --- | --- |
| O=C1C2=C(C(=O)c3ccccc31)[C@H]1CCc3ccccc3[C@H]1O2 (relative stereo) [LQB 187 (2a)] | 0.9 ± 0.1 |
| COc1ccc2c(c1)CC[C@@H]1C3=C(O[C@H]21)C(=O)c1ccccc1C3=O (relative stereo) [LQB 474 (2e)] | 2.6 ± 0.8 |

tested on: intracellular amastigotes of L. braziliensis; assay: Antiamastigote test, L. braziliensis in golden hamster macrophages; assay type: cell-based; details: CC50 in Macrophages/IC50 in intracellular amastigotes
Procedure: Macrophages of golden hamsters were used in assays against intracellular amastigotes of L. braziliensis due to the natural resistance of mice. Resident macrophages were obtained from the peritoneal cells of golden hamsters after a peritoneal injection of 10 mL of Dulbecco’s Modified Eagle’s medium (DMEM) (Sigma-Aldrich). The peritoneal macrophages were plated onto glass coverslips placed within the wells of a 24-well culture plate and incubated at 37 °C in 5% CO2 for 1 h. After removing the nonadherent cells, the monolayers were infected with stationary-phase L. braziliensis promastigotes at a 5:1 parasite/macrophage ratio for 4 h. The infected macrophages were washed and incubated with several pterocarpanquinone concentrations (0-25 μM) for 72 h. The monolayers were then stained with Giemsa, and at least 100 infected macrophages per sample were counted under optical microscopy.
as §3

| Structure (SMILES) | L. braziliensis SI (Selective Index) |
| --- | --- |
| O=C1C2=C(C(=O)c3ccccc31)[C@H]1CCc3ccccc3[C@H]1O2 (relative stereo) [LQB 187 (2a)] | 5.0 |
| COc1ccc2c(c1)CC[C@@H]1C3=C(O[C@H]21)C(=O)c1ccccc1C3=O (relative stereo) [LQB 474 (2e)] | 1.74 |

same assay, conditions: Leishmania braziliensis, Peritoneal macrophage; intracellular amastigotes in golden hamster peritoneal macrophages, 72 h, infection index, Mean ± SEM; read-out: L. braziliensis Amastigote IC50

| Structure (SMILES) | IC50 [µM] |
| --- | --- |
| O=C1C2=C(C(=O)c3ccccc31)[C@H]1CCc3ccccc3[C@H]1O2 (relative stereo) [LQB 187 (2a)] | 9.85 ± 1.37 |
| COc1ccc2c(c1)CC[C@@H]1C3=C(O[C@H]21)C(=O)c1ccccc1C3=O (relative stereo) [LQB 474 (2e)] | 8.53 ± 1.12 |

tested on: intracellular amastigotes of L. infantum; assay: Antiamastigote test, L. infantum in mouse peritoneal macrophages; assay type: cell-based, Leishmania infantum; details: Leishmania infantum, Peritoneal macrophage; intracellular amastigotes in mouse peritoneal macrophages, 72 h, infection index, Mean ± SEM; read-out: L. infantum Amastigote IC50
Procedure: as §2, §3

| Structure (SMILES) | IC50 [µM] |
| --- | --- |
| O=C1C2=C(C(=O)c3ccccc31)[C@H]1CCc3ccccc3[C@H]1O2 (relative stereo) [LQB 187 (2a)] | > 25 |
| COc1ccc2c(c1)CC[C@@H]1C3=C(O[C@H]21)C(=O)c1ccccc1C3=O (relative stereo) [LQB 474 (2e)] | > 10 |

tested on: promastigotes of L. infantum; assay: Measurement of reactive oxygen species (H2DCFDA); assay type: cell-based, Leishmania infantum; details: 1.25–5.0 μM, 4 h
Procedure: Intracellular ROS levels were measured in treated and untreated cells as described previously. Briefly, 1 × 10^7 promastigotes/mL of L. infantum were incubated in Schneider’s insect medium supplemented with 20% HIFCS at 26 °C with concentrations of pterocarpanquinones 2a-f ranging from 0 to 5 μM in the presence of 20 μM H2DCFDA (Molecular Probes, Eugene, OR, USA). The fluorescence was monitored at 1 h intervals for 4 h using 485 and 530 nm as excitation and emission wavelengths, respectively, using the spectrofluorometer Spectra Max Gemini XPS (Molecular Devices, Silicon Valley, CA, USA). Antimycin A 10 μM was used as positive control.

| Structure (SMILES) | ROS production, dependence on concentration |
| --- | --- |
| COc1ccc2c(c1)CC[C@@H]1C3=C(O[C@H]21)C(=O)c1ccccc1C3=O (relative stereo) [LQB 474 (2e)] | only increased ROS production when the parasite was incubated with the highest concentration of 5 μM |

tested on: promastigotes of L. infantum; assay: Mitochondrial membrane potential (ΔΨm) test (rhodamine 123, flow cytometry); assay type: cell-based, Leishmania infantum; details: 1.25 μM, 4 h, Rh123, IV = (MT − MC)/MC, negative = depolarization, mean ± SD
Procedure: To determine the effect of pterocarpanquinones 2a-f on the ΔΨm, promastigotes of L. infantum (5 × 10^6 cells/mL) were incubated in the presence of 0–5 μM of derivatives at 26 °C. After 4 h, the parasites were incubated for 15 min with 10 μg/mL rhodamine 123 (Rh123) (Sigma-Aldrich). Data acquisition of 10,000 events and analysis were performed using the flow cytometer FACSCalibur (Becton-Dickinson, Rutherford, NJ, USA). Alteration in ΔΨm was quantified using an index of variation (IV) obtained by the eq. IV = (MT − MC)/MC [24], where MT is the median of the fluorescence of Rh123 for treated parasites and MC is the median of the fluorescence of the control parasites. Negative IV values correspond to depolarization of the mitochondrial membrane. The FCCP (Carbonyl cyanide-p-Trifluoromethoxyphenylhydrazone) 20 μM was used as positive control.

| Structure (SMILES) | Δѱm index of variation (IV) |
| --- | --- |
| O=C1C2=C(C(=O)c3ccccc31)[C@H]1CCc3ccccc3[C@H]1O2 (relative stereo) [LQB 187 (2a)] | −0.103 ± 0.16 |
| COc1ccc2c(c1)CC[C@@H]1C3=C(O[C@H]21)C(=O)c1ccccc1C3=O (relative stereo) [LQB 474 (2e)] | −0.582 ± 0.1 |

same assay, conditions: 2.5 μM, 4 h, Rh123, IV = (MT − MC)/MC, negative = depolarization, mean ± SD

| Structure (SMILES) | Δѱm index of variation (IV) |
| --- | --- |
| O=C1C2=C(C(=O)c3ccccc31)[C@H]1CCc3ccccc3[C@H]1O2 (relative stereo) [LQB 187 (2a)] | −0.368 ± 0.03 |
| COc1ccc2c(c1)CC[C@@H]1C3=C(O[C@H]21)C(=O)c1ccccc1C3=O (relative stereo) [LQB 474 (2e)] | −0.701 ± 0.01 |

same assay, conditions: 4 h, rhodamine 123, flow cytometry

| Structure (SMILES) | effect on ΔΨm (in words) |
| --- | --- |
| COc1ccc2c(c1)CC[C@@H]1C3=C(O[C@H]21)C(=O)c1ccccc1C3=O (relative stereo) [LQB 474 (2e)] | greater depolarization |
